From article PMC12300041, “Tricyclic Isatin Derivatives as Anti-Inflammatory Compounds with High Kinase Binding Affinity” (Molecules, 2025)
Blank lines part the entries; values can stand above or below the compound they belong to.

Legend:
[1] = test system: proinflammatory cytokine production; assay: Multiplex human cytokine ELISA, LPS-stimulated MonoMac-6 cells; type: cell-based; details: 10 μM compound, 24 h, versus DMSO-treated control
Source text: A multiplex human cytokine ELISA kit from Anogen (Mississauga, ON, Canada) was used to evaluate various cytokines (IL-1α, IL-1β, IL-6, GM-CSF, MCP-1, IFN-γ, and TNF) in the supernatants of MonoMac-6 cells.

[2] = Cytotoxicity, CellTiter-Glo; type: cell-based, human; details: human, MonoMac-6 cells; 24 h incubation; N.T.: no cytotoxicity at concentrations up to 50 µM
[3] = test system: MonoMac-6 Cells; assay: Cytotoxicity, CellTiter-Glo; type: cell-based, human; details: 24 h incubation; N.T.: no cytotoxicity at concentrations up to 50 µM
[4] = test system: THP-1 Cells; assay: Cytotoxicity, CellTiter-Glo; type: cell-based, human; details: 24 h incubation; N.T.: no cytotoxicity at concentrations up to 50 µM
Procedure: (§1) Cytotoxicity was analyzed with a CellTiter-Glo Luminescent Cell Viability Assay Kit from Promega (Madison, WI, USA) according to the manufacturer’s protocol. THP-1Blue cells were treated with varying concentrations of the test compounds (up to 50 µM) and cultivated for 24 h. After treatment, the cells were allowed to equilibrate to room temperature for 30 min, the substrate was added, and the samples were analyzed with a Fluoroscan Ascent FL (Thermo Fisher Scientific, Waltham, MA, USA).

[5] = Cytotoxicity, CellTiter-Glo; type: cell-based, human; details: human, THP-1Blue cells; 24 h incubation; N.T.: no cytotoxicity at concentrations up to 50 µM
Procedure: as §1

[6] = target: T1, DAPK1 (Homo sapiens, UniProt P53355); assay: KINOMEscan; type: binding; details: DAPK1; N.B.: no binding at concentrations up to 30 µM
T1 construct: purchased Eurofins Pharma Discovery (KINOMEscan)
Procedure: (§2) Kinase profiling was performed by KINOMEscan (Eurofins Pharma Discovery, San Diego, CA, USA), using a panel of 423 protein kinases, as described previously. Compounds were submitted for dissociation constant (Kd) determination toward several target kinases using KINOMEscan. […] Binding reactions were performed at room temperature for 1 h, and the fraction of kinase not bound to the test compound was determined by capture with an immobilized affinity ligand and quantified by quantitative polymerase chain reaction. The primary screening at fixed concentrations of the compound was performed in duplicate. For dissociation constant Kd determination, a 12-point half-log dilution series (a maximum concentration of 33 μM) was used.

[7] = target: T2, NEK10 (Homo sapiens, UniProt Q6ZWH5); assay: KINOMEscan; type: binding; details: NEK10; N.B.: no binding at concentrations up to 30 µM
T2 construct: purchased Eurofins Pharma Discovery (KINOMEscan)
T2 sequence (Q6ZWH5 1-1172): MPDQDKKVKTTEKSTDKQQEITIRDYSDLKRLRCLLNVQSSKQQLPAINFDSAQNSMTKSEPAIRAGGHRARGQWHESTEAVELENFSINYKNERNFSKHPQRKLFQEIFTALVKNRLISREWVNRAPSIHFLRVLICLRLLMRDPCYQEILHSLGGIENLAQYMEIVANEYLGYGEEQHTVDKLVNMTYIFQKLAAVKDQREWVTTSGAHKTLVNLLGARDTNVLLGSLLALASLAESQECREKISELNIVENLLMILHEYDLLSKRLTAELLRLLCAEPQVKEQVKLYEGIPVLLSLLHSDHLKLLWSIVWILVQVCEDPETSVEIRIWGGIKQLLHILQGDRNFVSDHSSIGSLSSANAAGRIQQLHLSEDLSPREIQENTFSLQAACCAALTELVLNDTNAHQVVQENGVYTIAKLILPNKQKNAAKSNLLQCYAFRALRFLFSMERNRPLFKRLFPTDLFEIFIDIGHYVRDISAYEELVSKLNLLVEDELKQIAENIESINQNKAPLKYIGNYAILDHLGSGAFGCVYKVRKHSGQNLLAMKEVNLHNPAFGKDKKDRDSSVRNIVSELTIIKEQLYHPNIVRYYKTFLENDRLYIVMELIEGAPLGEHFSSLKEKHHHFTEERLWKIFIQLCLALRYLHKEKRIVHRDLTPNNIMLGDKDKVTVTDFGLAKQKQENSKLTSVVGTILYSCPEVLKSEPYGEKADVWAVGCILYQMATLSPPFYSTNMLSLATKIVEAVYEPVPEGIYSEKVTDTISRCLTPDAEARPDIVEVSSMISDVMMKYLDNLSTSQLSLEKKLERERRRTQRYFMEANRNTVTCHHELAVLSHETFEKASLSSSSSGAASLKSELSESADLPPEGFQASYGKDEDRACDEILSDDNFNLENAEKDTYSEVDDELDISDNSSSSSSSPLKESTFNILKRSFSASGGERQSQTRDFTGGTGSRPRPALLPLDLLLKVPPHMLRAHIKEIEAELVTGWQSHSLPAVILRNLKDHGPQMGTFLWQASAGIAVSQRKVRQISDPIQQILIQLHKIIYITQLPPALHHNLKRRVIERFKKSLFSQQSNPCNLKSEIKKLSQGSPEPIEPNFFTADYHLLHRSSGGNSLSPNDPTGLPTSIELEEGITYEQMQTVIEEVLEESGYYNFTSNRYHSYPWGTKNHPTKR
Procedure: as §2

[8] = target: T3, DYRK1A (Homo sapiens, UniProt Q13627); assay: KINOMEscan; type: binding; details: DYRK1A; N.B.: no binding at concentrations up to 30 µM
T3 construct: purchased Eurofins Pharma Discovery (KINOMEscan)
Procedure: as §2

[9] = target: T4, HIPK3 (Homo sapiens, UniProt Q9H422); assay: KINOMEscan; type: binding; details: HIPK3; N.B.: no binding at concentrations up to 30 µM
T4 construct: purchased Eurofins Pharma Discovery (KINOMEscan)
Procedure: as §2

[10] = target: T5, IRAK1 (Homo sapiens, UniProt P51617); assay: KINOMEscan; type: binding; details: IRAK1; N.B.: no binding at concentrations up to 30 µM
T5 construct: purchased Eurofins Pharma Discovery (KINOMEscan)
Procedure: as §2

[11] = target: T6, HASPIN (Homo sapiens, UniProt Q8TF76); assay: KINOMEscan; type: binding; details: Haspin; N.B.: no binding at concentrations up to 30 µM
T6 construct: purchased Eurofins Pharma Discovery (KINOMEscan)
T6 sequence (Q8TF76 1-798): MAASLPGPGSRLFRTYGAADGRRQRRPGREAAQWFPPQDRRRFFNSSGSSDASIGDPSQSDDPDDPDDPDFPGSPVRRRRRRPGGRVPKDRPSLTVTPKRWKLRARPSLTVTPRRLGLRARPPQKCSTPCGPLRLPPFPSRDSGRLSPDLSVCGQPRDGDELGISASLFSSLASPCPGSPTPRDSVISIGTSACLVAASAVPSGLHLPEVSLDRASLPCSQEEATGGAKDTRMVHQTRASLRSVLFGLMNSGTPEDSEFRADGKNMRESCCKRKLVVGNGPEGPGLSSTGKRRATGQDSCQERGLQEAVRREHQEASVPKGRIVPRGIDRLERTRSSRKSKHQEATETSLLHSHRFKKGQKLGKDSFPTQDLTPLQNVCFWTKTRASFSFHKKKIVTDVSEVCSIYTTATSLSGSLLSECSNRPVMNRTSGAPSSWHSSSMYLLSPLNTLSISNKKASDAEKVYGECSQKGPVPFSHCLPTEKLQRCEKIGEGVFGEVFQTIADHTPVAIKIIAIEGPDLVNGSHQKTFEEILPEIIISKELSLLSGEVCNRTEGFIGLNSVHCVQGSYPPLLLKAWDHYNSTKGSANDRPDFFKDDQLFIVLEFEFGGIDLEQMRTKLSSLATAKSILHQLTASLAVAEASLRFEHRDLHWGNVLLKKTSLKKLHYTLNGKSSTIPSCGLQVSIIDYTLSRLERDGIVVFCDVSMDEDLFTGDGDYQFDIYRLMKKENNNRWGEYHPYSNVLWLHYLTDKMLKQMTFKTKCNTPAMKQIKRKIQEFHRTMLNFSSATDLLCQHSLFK
Procedure: as §2

[12] = target: T7, DAPK3 (Homo sapiens, UniProt O43293); assay: KINOMEscan; type: binding; details: DAPK3; N.B.: no binding at concentrations up to 30 µM
T7 construct: purchased Eurofins Pharma Discovery (KINOMEscan)
Procedure: as §2

[13] = target: T8, HIPK2 (Homo sapiens, UniProt Q9H2X6); assay: KINOMEscan; type: binding; details: HIPK2; N.B.: no binding at concentrations up to 30 µM
T8 construct: purchased Eurofins Pharma Discovery (KINOMEscan)
Procedure: as §2

[14] = target: T9, HIPK1 (Homo sapiens, UniProt Q86Z02); assay: KINOMEscan; type: binding; details: HIPK1; N.B.: no binding at concentrations up to 30 µM
T9 construct: purchased Eurofins Pharma Discovery (KINOMEscan)
Procedure: as §2

[15] = target: T10, DAPK2 (Homo sapiens, UniProt Q9UIK4); assay: KINOMEscan; type: binding; details: DAPK2; N.B.: no binding at concentrations up to 30 µM
T10 construct: purchased Eurofins Pharma Discovery (KINOMEscan)
Procedure: as §2

[16] = target: T11, DYRK1B (Homo sapiens, UniProt Q9Y463); assay: KINOMEscan; type: binding; details: DYRK1B; N.B.: no binding at concentrations up to 30 µM
T11 construct: purchased Eurofins Pharma Discovery (KINOMEscan)
Procedure: as §2

[17] = target: T12, PIM1 (Homo sapiens, UniProt P11309); assay: KINOMEscan; type: binding; details: PIM1; N.B.: no binding at concentrations up to 30 µM
T12 construct: purchased Eurofins Pharma Discovery (KINOMEscan)
Procedure: as §2

[18] = test system: kinases; assay: Published kinase profile of SP600125, selectivity score; type: binding; details: from published kinase profile; 39/119

T8 sequence (Q9H2X6 whole entry): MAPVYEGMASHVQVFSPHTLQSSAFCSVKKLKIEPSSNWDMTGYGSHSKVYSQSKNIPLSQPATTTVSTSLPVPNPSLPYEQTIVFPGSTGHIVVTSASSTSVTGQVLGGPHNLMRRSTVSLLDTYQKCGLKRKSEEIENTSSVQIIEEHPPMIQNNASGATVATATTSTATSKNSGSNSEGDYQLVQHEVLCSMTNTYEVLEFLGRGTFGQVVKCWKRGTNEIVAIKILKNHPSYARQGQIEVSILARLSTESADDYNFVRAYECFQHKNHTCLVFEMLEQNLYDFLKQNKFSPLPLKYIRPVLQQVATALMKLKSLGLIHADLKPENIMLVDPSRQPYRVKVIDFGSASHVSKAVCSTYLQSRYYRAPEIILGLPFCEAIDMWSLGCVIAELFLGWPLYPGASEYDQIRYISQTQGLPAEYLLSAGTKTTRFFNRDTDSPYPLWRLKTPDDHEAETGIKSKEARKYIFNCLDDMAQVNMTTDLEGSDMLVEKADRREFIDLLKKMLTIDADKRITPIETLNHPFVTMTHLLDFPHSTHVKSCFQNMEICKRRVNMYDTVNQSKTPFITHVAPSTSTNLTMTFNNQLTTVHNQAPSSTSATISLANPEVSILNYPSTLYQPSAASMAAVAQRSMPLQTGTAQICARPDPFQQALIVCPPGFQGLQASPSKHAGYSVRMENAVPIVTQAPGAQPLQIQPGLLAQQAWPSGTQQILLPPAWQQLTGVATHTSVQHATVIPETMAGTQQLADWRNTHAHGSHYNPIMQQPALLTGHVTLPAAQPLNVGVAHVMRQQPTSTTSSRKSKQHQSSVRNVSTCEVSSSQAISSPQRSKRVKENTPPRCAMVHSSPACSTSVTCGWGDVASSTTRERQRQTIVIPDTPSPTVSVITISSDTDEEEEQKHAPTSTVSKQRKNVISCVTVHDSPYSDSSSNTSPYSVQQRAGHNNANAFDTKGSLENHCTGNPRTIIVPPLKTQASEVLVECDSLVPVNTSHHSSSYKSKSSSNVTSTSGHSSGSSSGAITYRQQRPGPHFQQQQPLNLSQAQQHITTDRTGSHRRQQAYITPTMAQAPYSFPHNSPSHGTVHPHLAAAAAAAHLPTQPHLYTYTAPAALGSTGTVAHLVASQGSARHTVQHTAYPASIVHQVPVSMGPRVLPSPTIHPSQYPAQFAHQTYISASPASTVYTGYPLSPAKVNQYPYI
T5 sequence (P51617 whole entry): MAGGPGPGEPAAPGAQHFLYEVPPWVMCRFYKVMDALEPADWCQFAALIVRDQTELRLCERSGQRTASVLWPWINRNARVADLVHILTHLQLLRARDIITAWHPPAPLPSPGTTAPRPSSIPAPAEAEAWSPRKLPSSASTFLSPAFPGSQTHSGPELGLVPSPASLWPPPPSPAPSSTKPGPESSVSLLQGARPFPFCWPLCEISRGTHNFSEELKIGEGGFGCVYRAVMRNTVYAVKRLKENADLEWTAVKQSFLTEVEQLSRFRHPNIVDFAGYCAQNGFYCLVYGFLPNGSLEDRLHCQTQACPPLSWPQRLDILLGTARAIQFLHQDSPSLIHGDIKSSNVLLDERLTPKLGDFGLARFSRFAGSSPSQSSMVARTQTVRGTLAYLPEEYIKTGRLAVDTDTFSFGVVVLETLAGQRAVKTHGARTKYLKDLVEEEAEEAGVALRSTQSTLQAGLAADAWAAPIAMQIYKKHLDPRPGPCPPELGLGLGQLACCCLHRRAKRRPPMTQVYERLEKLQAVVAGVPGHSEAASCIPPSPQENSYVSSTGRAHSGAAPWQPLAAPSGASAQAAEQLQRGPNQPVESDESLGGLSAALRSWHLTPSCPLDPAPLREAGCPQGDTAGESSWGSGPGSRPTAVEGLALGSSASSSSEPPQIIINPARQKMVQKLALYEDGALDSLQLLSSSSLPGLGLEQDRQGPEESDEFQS
T4 sequence (Q9H422 whole entry): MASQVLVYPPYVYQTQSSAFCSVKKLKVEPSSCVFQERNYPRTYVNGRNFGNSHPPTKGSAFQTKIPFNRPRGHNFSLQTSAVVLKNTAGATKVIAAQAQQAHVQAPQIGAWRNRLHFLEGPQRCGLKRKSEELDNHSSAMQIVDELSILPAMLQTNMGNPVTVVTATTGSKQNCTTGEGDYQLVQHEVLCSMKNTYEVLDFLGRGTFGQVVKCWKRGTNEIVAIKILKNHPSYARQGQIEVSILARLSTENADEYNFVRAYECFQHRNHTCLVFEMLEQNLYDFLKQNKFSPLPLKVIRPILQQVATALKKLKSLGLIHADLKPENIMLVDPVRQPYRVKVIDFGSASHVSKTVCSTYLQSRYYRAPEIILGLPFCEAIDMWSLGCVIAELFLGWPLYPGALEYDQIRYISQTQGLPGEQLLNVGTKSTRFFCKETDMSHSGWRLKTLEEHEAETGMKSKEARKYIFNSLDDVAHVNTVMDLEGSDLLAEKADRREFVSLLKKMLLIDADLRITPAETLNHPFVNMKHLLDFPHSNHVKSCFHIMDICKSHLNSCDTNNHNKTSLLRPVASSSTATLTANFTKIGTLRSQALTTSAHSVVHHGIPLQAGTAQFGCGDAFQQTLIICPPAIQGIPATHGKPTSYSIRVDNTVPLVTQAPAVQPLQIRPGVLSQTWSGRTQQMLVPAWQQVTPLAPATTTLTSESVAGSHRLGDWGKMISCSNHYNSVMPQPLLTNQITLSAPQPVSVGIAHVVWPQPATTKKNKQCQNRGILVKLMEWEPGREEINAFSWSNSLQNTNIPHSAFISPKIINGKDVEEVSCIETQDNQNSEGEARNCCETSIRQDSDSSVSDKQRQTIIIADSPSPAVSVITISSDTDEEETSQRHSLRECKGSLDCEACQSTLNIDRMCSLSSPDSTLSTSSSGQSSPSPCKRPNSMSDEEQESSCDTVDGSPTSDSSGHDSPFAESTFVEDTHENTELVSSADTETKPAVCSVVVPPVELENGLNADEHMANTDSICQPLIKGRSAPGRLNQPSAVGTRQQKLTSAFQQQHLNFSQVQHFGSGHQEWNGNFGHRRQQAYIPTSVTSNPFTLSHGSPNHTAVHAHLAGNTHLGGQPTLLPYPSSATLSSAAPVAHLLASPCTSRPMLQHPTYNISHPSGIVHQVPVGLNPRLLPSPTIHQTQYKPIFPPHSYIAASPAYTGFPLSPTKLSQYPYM
T12 sequence (P11309 whole entry): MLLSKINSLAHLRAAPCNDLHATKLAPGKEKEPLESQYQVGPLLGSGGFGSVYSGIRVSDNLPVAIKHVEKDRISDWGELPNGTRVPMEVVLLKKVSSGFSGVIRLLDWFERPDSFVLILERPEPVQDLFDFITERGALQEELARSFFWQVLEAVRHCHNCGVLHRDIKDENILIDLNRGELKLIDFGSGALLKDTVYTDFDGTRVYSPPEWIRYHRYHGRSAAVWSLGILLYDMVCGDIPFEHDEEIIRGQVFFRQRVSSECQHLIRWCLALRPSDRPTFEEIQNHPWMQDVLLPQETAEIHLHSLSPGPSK
T1 sequence (P53355 whole entry): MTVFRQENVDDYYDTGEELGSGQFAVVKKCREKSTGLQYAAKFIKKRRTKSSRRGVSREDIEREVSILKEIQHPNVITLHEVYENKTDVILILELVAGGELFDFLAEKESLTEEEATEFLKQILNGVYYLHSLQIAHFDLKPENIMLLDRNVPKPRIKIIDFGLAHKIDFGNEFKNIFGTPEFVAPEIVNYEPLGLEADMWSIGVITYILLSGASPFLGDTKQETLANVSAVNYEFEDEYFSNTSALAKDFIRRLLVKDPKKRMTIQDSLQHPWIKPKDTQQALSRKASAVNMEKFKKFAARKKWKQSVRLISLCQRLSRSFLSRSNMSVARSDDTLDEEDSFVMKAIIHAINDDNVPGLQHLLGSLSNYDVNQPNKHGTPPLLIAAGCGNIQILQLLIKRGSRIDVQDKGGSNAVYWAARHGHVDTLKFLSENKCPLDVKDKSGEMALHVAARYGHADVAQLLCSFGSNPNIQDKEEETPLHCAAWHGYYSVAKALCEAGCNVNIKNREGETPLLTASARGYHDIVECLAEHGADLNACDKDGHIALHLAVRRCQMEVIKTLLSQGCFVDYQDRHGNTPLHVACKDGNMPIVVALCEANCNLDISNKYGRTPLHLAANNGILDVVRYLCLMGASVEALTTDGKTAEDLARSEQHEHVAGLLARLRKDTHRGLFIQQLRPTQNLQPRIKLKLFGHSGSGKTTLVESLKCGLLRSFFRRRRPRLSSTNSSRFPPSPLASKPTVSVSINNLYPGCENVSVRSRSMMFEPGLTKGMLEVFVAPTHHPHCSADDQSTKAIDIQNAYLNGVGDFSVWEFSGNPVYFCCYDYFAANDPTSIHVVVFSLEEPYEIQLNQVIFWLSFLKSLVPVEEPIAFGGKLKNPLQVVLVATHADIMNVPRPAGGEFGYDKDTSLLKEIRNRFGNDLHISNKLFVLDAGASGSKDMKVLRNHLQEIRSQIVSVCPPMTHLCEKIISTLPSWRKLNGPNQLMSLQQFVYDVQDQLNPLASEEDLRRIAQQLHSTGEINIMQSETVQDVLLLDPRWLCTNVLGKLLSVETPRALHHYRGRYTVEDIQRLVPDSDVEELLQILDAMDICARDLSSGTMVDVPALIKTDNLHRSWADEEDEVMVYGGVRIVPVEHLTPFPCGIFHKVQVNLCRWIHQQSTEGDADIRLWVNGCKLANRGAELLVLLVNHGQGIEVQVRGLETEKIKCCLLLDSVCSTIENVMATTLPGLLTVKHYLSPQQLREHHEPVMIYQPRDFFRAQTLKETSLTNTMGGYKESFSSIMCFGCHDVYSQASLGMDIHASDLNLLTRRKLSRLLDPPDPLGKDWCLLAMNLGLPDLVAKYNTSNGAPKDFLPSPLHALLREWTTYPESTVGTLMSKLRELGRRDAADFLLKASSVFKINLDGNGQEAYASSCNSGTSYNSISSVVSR

Structure (SMILES): CON=C1C(=O)Nc2c1ccc1c2CCCC1 [Compound 5b, 3-(Methoxyimino)-1,3,6,7,8,9-hexahydro-2H-benzo[g]indol-2-one]
inhibition of secretion of IL-1α, IL-1β, IL-6, TNF and MCP-1 [1]: ineffective

Structure (SMILES): CON=C1C(=O)Nc2c1cc([N+](=O)[O-])c1c2CCCC1 [Compound 5e, 3-(Methoxyimino)-5-nitro-1,3,6,7,8,9-hexahydro-2H-benzo[g]indol-2-one]
inhibition of secretion of IL-1α, IL-1β, IL-6, TNF and MCP-1 [1]: ineffective

Kd (µM) [6]: N.B. | Kd (µM) [7]: N.B. | Kd (µM) [8]: N.B. | Kd (µM) [9]: N.B. | Kd (µM) [10]: N.B. | Kd (µM) [11]: N.B. | Kd (µM) [12]: N.B. | Kd (µM) [13]: N.B. | Kd (µM) [14]: N.B. | Kd (µM) [15]: N.B. | Kd (µM) [16]: N.B. | Kd [17]: 14 ± 0.7 µM
Structure (SMILES): CCN1CCc2c(-c3ccccc3)cc3c(c2C1)NC(=O)C3=NO [NS-383, 8-ethyl-6,7,8,9-tetrahydro-5-phenyl-1H-pyrrolo[3,2-h]isoquinolin-2,3-dione-3-oxime, reference compound]
IC50 at 24 h [2]: 21.2 ± 2.4 µM | Cytotoxicity (MonoMac-6 Cells) IC50 (µM) [3]: cytotoxic | Cytotoxicity (THP-1 Cells) IC50 (µM) [4]: cytotoxic | IC50 at 24 h [5]: 19.2 ± 2.1 µM

Structure (SMILES): Oc1c2ccccc2c2c3c(cccc13)N=N2 [SP600125]
selectivity score, S(10) [18]: 0.328
